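Results reflect a 48-hour exposure of cells in 96-well plates to compound at five concentrations. TGI: concentration producing complete growth inhibition.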
Columns and labels:
Test in all cases: inhibition of tumour cell growth, NCI panel, 48 h
HCT-15 colon = system: HCT-15 colon
COLO 205 colon = system: COLO 205 colon
OVCAR-5 ovarian = system: OVCAR-5 ovarian
786-0 renal = system: 786-0 renal
UO-31 renal = system: UO-31 renal
OVCAR-3 ovarian = system: OVCAR-3 ovarian
SN12C renal = system: SN12C renal
A498 renal = system: A498 renal
HCT-116 colon = system: HCT-116 colon
DU-145 prostate = system: DU-145 prostate
PC-3 prostate = system: PC-3 prostate
CCRF-CEM leukemia = system: CCRF-CEM leukemia
HOP-62 NSCLC = system: HOP-62 NSCLC
U251 CNS = system: U251 CNS
SF-295 CNS = system: SF-295 CNS
MDA-N = system: MDA-N
SK-MEL-5 melanoma = system: SK-MEL-5 melanoma
SW-620 colon = system: SW-620 colon
EKVX NSCLC = system: EKVX NSCLC
ACHN renal = system: ACHN renal
TK-10 renal = system: TK-10 renal
MOLT-4 leukemia = system: MOLT-4 leukemia
SK-OV-3 ovarian = system: SK-OV-3 ovarian
MDA-MB-231 breast = system: MDA-MB-231 breast
RXF 393 renal = system: RXF 393 renal
NCI-H522 lung = system: NCI-H522 lung
OVCAR-8 ovarian = system: OVCAR-8 ovarian
HS 578T breast = system: HS 578T breast
HCC-2998 colon = system: HCC-2998 colon
CAKI-1 renal = system: CAKI-1 renal
BT-549 breast = system: BT-549 breast
T-47D breast = system: T-47D breast
SR leukemia = system: SR leukemia
LOX IMVI melanoma = system: LOX IMVI melanoma
UACC-257 melanoma = system: UACC-257 melanoma
NCI-H226 lung = system: NCI-H226 lung
SK-MEL-2 melanoma = system: SK-MEL-2 melanoma
SF-539 CNS = system: SF-539 CNS
SF-268 CNS = system: SF-268 CNS
SNB-19 CNS = system: SNB-19 CNS
RPMI-8226 leukemia = system: RPMI-8226 leukemia
HOP-92 NSCLC = system: HOP-92 NSCLC
IGROV1 ovarian = system: IGROV1 ovarian
MDA-MB-435 = system: MDA-MB-435
M14 melanoma = system: M14 melanoma
UACC-62 melanoma = system: UACC-62 melanoma
SNB-75 CNS = system: SNB-75 CNS
K-562 leukemia = system: K-562 leukemia
NCI/ADR-RES ovarian = system: NCI/ADR-RES ovarian
MCF7 breast = system: MCF7 breast
OVCAR-4 ovarian = system: OVCAR-4 ovarian
KM12 colon = system: KM12 colon
NCI-H23 lung = system: NCI-H23 lung
NCI-H460 lung = system: NCI-H460 lung
MALME-3M melanoma = system: MALME-3M melanoma
A549 NSCLC = system: A549 NSCLC
HL-60(TB) leukemia = system: HL-60(TB) leukemia
HT29 colon = system: HT29 colon
SK-MEL-28 melanoma = system: SK-MEL-28 melanoma

Compound O=c1nc2c(c(-c3ccc(F)cc3)[nH]1)COC/C2=C\c1ccc(F)cc1 has a TGI (HCT-15 colon) greater than 100 µM, a TGI (COLO 205 colon) greater than 100 µM and a TGI (OVCAR-5 ovarian) greater than 100 µM. It also gave a TGI (786-0 renal) greater than 100 µM, a TGI (UO-31 renal) greater than 100 µM and a TGI (OVCAR-3 ovarian) greater than 100 µM. The TGI (SN12C renal) was greater than 100 µM, the TGI (A498 renal) was greater than 100 µM and the TGI (HCT-116 colon) was greater than 100 µM. The TGI (DU-145 prostate) was greater than 100 µM, the TGI (PC-3 prostate) was greater than 100 µM and the TGI (CCRF-CEM leukemia) was greater than 100 µM. For the same compound, the TGI (HOP-62 NSCLC) was greater than 100 µM, the TGI (U251 CNS) was greater than 100 µM and the TGI (SF-295 CNS) was greater than 100 µM. The TGI (MDA-N) was greater than 100 µM, the TGI (SK-MEL-5 melanoma) was greater than 100 µM and the TGI (SW-620 colon) was greater than 100 µM. It also gave a TGI (EKVX NSCLC) greater than 100 µM, a TGI (ACHN renal) greater than 100 µM and a TGI (TK-10 renal) greater than 100 µM. The TGI (MOLT-4 leukemia) was greater than 100 µM, the TGI (SK-OV-3 ovarian) was greater than 100 µM and the TGI (MDA-MB-231 breast) was greater than 100 µM. It also gave a TGI (RXF 393 renal) greater than 100 µM, a TGI (NCI-H522 lung) greater than 100 µM and a TGI (OVCAR-8 ovarian) greater than 100 µM. The TGI (HS 578T breast) was greater than 100 µM, the TGI (HCC-2998 colon) was greater than 100 µM and the TGI (CAKI-1 renal) was greater than 100 µM. It also gave a TGI (BT-549 breast) greater than 100 µM, a TGI (T-47D breast) greater than 100 µM and a TGI (SR leukemia) greater than 100 µM. It also gave a TGI (LOX IMVI melanoma) greater than 100 µM, a TGI (UACC-257 melanoma) greater than 100 µM and a TGI (NCI-H226 lung) greater than 100 µM. For the same compound, the TGI (SK-MEL-2 melanoma) was greater than 100 µM, the TGI (SF-539 CNS) was greater than 100 µM and the TGI (SF-268 CNS) was greater than 100 µM. It also gave a TGI (SNB-19 CNS) greater than 100 µM, a TGI (RPMI-8226 leukemia) greater than 100 µM and a TGI (HOP-92 NSCLC) greater than 100 µM. For the same compound, the TGI (IGROV1 ovarian) was greater than 100 µM, the TGI (MDA-MB-435) was greater than 100 µM and the TGI (M14 melanoma) was greater than 100 µM. The TGI (UACC-62 melanoma) was greater than 100 µM, the TGI (SNB-75 CNS) was greater than 100 µM and the TGI (K-562 leukemia) was greater than 100 µM. For the same compound, the TGI (NCI/ADR-RES ovarian) was greater than 100 µM, the TGI (MCF7 breast) was greater than 100 µM and the TGI (OVCAR-4 ovarian) was greater than 100 µM. For the same compound, the TGI (KM12 colon) was greater than 100 µM, the TGI (NCI-H23 lung) was greater than 100 µM and the TGI (NCI-H460 lung) was greater than 100 µM.

With O=C(CCc1ccc(O)c(O)c1)NCCc1cc(O)c(O)c(O)c1 the TGI (HCT-15 colon) was 32.1 µM, the TGI (COLO 205 colon) was greater than 100 µM and the TGI (MALME-3M melanoma) was greater than 100 µM. It also gave a TGI (OVCAR-5 ovarian) greater than 100 µM, a TGI (786-0 renal) of 32.6 µM and a TGI (UO-31 renal) greater than 100 µM. For the same compound, the TGI (OVCAR-3 ovarian) was 34.5 µM, the TGI (SN12C renal) was 31.9 µM and the TGI (A498 renal) was greater than 100 µM. The TGI (HCT-116 colon) was 33 µM, the TGI (A549 NSCLC) was 54.2 µM and the TGI (DU-145 prostate) was greater than 100 µM. It also gave a TGI (PC-3 prostate) greater than 100 µM, a TGI (CCRF-CEM leukemia) greater than 100 µM and a TGI (HOP-62 NSCLC) greater than 100 µM. The TGI (U251 CNS) was 31.7 µM, the TGI (SF-295 CNS) was 33.3 µM and the TGI (HL-60(TB) leukemia) was greater than 100 µM. It also gave a TGI (MDA-N) of 30.6 µM, a TGI (SK-MEL-5 melanoma) of 66.2 µM and a TGI (SW-620 colon) of 35.5 µM. For the same compound, the TGI (EKVX NSCLC) was 53 µM, the TGI (ACHN renal) was greater than 100 µM and the TGI (TK-10 renal) was greater than 100 µM. The TGI (MOLT-4 leukemia) was 46.5 µM, the TGI (SK-OV-3 ovarian) was greater than 100 µM and the TGI (MDA-MB-231 breast) was 28.5 µM. The TGI (RXF 393 renal) was greater than 100 µM, the TGI (NCI-H522 lung) was 40.2 µM and the TGI (OVCAR-8 ovarian) was 36.2 µM. The TGI (HS 578T breast) was greater than 100 µM, the TGI (HCC-2998 colon) was greater than 100 µM and the TGI (BT-549 breast) was 31.1 µM. For the same compound, the TGI (T-47D breast) was greater than 100 µM, the TGI (SR leukemia) was greater than 100 µM and the TGI (LOX IMVI melanoma) was 31.7 µM. For the same compound, the TGI (UACC-257 melanoma) was greater than 100 µM, the TGI (NCI-H226 lung) was greater than 100 µM and the TGI (SK-MEL-2 melanoma) was 50.6 µM. It also gave a TGI (SF-539 CNS) greater than 100 µM, a TGI (SF-268 CNS) greater than 100 µM and a TGI (SNB-19 CNS) greater than 100 µM. It also gave a TGI (RPMI-8226 leukemia) greater than 100 µM, a TGI (HOP-92 NSCLC) greater than 100 µM and a TGI (IGROV1 ovarian) greater than 100 µM. For the same compound, the TGI (MDA-MB-435) was 31.8 µM, the TGI (M14 melanoma) was 48.1 µM and the TGI (HT29 colon) was 35.4 µM. The TGI (UACC-62 melanoma) was greater than 100 µM, the TGI (SK-MEL-28 melanoma) was greater than 100 µM and the TGI (SNB-75 CNS) was greater than 100 µM. The TGI (K-562 leukemia) was 41.4 µM, the TGI (NCI/ADR-RES ovarian) was 40.9 µM and the TGI (MCF7 breast) was 21.7 µM. The TGI (OVCAR-4 ovarian) was 34.5 µM, the TGI (KM12 colon) was greater than 100 µM and the TGI (NCI-H23 lung) was 31.3 µM. For the same compound, the TGI (NCI-H460 lung) was 40.8 µM.

Source: PubChem BioAssay (NCI)
